{
  "source": "patent US20250049738A1",
  "about": "“METHOD OF TREATMENT AND SELECTION OF PATIENTS BENEFITING FROM AGOMELATINE BASED ON EEG MEASUREMENTS” (Alto Neuroscience, Inc., priority 2023, published 2025)",
  "key": {"sleep measures": {"test_system": "sleep measures", "details": "cited from earlier work"}, "[1]": {"test_system": "patients with major depressive disorder", "assay": "Open-label trials of adjunctive agomelatine 25 mg at bedtime in MDD; baseline EEG models predicting change in MADRS", "assay_type": "in vivo, human", "details": "for d (Cohen's d, prediction of agomelatine outcome): REC"}},
  "data": [
    {"molecule": "COc1ccc2cccc(CCNC(C)=O)c2c1", "note": "[agomelatine, N-[2-(7-methoxynaphthalen-1-yl)ethyl]acetamide]", "values": [
      {"measurement": "sleep measures assessed using actigraphic measurements", "setting": "sleep measures; in contrast to an SSRI", "result": "improve sleep measures"},
      {"measurement": "deep to total sleep ratio", "setting": "sleep measures; in vivo", "result": "increasing the deep to total sleep ratio"},
      {"measurement": "prediction of agomelatine outcome by relative power", "setting": "[1]; EEG machine learning model", "result": "not predictive"},
      {"measurement": "prediction of agomelatine outcome by aperiodic exponent", "setting": "[1]; EEG machine learning model, significant at week 4", "result": "also predictive"},
      {"measurement": "Cohen's d effect size, predicted responders vs predicted non-responders, change in MADRS", "setting": "[1]; EEG sample entropy machine learning model, cross-validation left-out data of training dataset, all weeks, FIG. 2A", "result": "> 0.4"},
      {"measurement": "Cohen's d, predicted agomelatine responders vs non-responders, observed change in MADRS", "setting": "[1]; EEG sample entropy machine learning model, holdout dataset, weeks 4, 6 and 8, FIG. 2B", "result": "≥ 0.4"},
      {"measurement": "implied agomelatine-placebo difference, d", "setting": "[1]; EEG-predicted non-responders (sample entropy model), full sample", "result": "−0.06"},
      {"measurement": "implied agomelatine-placebo response, d", "setting": "[1]; EEG-predicted responders (sample entropy model), week 8, full sample", "result": 0.58},
      {"measurement": "implied agomelatine-placebo difference, d", "setting": "[1]; Pz low gamma sample entropy alone, high entropy patients, full sample", "result": 0.51},
      {"measurement": "implied agomelatine-placebo difference, d", "setting": "[1]; Pz low gamma sample entropy alone, low entropy patients, full sample", "result": 0.0},
      {"measurement": "d (Cohen's d, prediction of agomelatine outcome)", "setting": "[1]; Approximate Entropy, lower gamma, Week 1", "result": 0.23},
      {"measurement": "d (Cohen's d, prediction of agomelatine outcome)", "setting": "[1]; Approximate Entropy, lower gamma, Week 2", "result": 0.29},
      {"measurement": "d (Cohen's d, prediction of agomelatine outcome)", "setting": "[1]; Approximate Entropy, lower gamma, Week 4", "result": 0.46},
      {"measurement": "d (Cohen's d, prediction of agomelatine outcome)", "setting": "[1]; Detrended Fluctuation Analysis, lower beta, Week 1", "result": 0.49},
      {"measurement": "d (Cohen's d, prediction of agomelatine outcome)", "setting": "[1]; Detrended Fluctuation Analysis, lower beta, Week 2", "result": 0.44},
      {"measurement": "d (Cohen's d, prediction of agomelatine outcome)", "setting": "[1]; Detrended Fluctuation Analysis, lower beta, Week 4", "result": 0.41},
      {"measurement": "d (Cohen's d, prediction of agomelatine outcome)", "setting": "[1]; Detrended Fluctuation Analysis, upper beta, Week 1", "result": 0.19},
      {"measurement": "d (Cohen's d, prediction of agomelatine outcome)", "setting": "[1]; Detrended Fluctuation Analysis, upper beta, Week 2", "result": 0.20},
      {"measurement": "d (Cohen's d, prediction of agomelatine outcome)", "setting": "[1]; Detrended Fluctuation Analysis, upper beta, Week 4", "result": 0.25},
      {"measurement": "d (Cohen's d, prediction of agomelatine outcome)", "setting": "[1]; Higuchi Fractal Dimension, lower beta, Week 1", "result": 0.44},
      {"measurement": "d (Cohen's d, prediction of agomelatine outcome)", "setting": "[1]; Higuchi Fractal Dimension, lower beta, Week 2", "result": 0.36},
      {"measurement": "d (Cohen's d, prediction of agomelatine outcome)", "setting": "[1]; Higuchi Fractal Dimension, lower beta, Week 4", "result": 0.28},
      {"measurement": "d (Cohen's d, prediction of agomelatine outcome)", "setting": "[1]; Higuchi Fractal Dimension, lower gamma, Week 1", "result": 0.64},
      {"measurement": "d (Cohen's d, prediction of agomelatine outcome)", "setting": "[1]; Higuchi Fractal Dimension, lower gamma, Week 2", "result": 0.58},
      {"measurement": "d (Cohen's d, prediction of agomelatine outcome)", "setting": "[1]; Higuchi Fractal Dimension, lower gamma, Week 4", "result": 0.57},
      {"measurement": "d (Cohen's d, prediction of agomelatine outcome)", "setting": "[1]; Higuchi Fractal Dimension, upper beta, Week 1", "result": "−0.29"},
      {"measurement": "d (Cohen's d, prediction of agomelatine outcome)", "setting": "[1]; Higuchi Fractal Dimension, upper beta, Week 2", "result": "−0.20"},
      {"measurement": "d (Cohen's d, prediction of agomelatine outcome)", "setting": "[1]; Higuchi Fractal Dimension, upper beta, Week 4", "result": "−0.05"},
      {"measurement": "d (Cohen's d, prediction of agomelatine outcome)", "setting": "[1]; Higuchi Fractal Dimension, upper gamma, Week 1", "result": 0.16},
      {"measurement": "d (Cohen's d, prediction of agomelatine outcome)", "setting": "[1]; Higuchi Fractal Dimension, upper gamma, Week 2", "result": 0.16},
      {"measurement": "d (Cohen's d, prediction of agomelatine outcome)", "setting": "[1]; Higuchi Fractal Dimension, upper gamma, Week 4", "result": 0.21},
      {"measurement": "d (Cohen's d, prediction of agomelatine outcome)", "setting": "[1]; Katz Fractal Dimension, lower beta, Week 1", "result": 0.47},
      {"measurement": "d (Cohen's d, prediction of agomelatine outcome)", "setting": "[1]; Katz Fractal Dimension, lower beta, Week 2", "result": 0.42},
      {"measurement": "d (Cohen's d, prediction of agomelatine outcome)", "setting": "[1]; Katz Fractal Dimension, lower beta, Week 4", "result": 0.37},
      {"measurement": "d (Cohen's d, prediction of agomelatine outcome)", "setting": "[1]; Katz Fractal Dimension, lower gamma, Week 1", "result": 0.25},
      {"measurement": "d (Cohen's d, prediction of agomelatine outcome)", "setting": "[1]; Katz Fractal Dimension, lower gamma, Week 2", "result": 0.23},
      {"measurement": "d (Cohen's d, prediction of agomelatine outcome)", "setting": "[1]; Katz Fractal Dimension, lower gamma, Week 4", "result": 0.23},
      {"measurement": "d (Cohen's d, prediction of agomelatine outcome)", "setting": "[1]; Katz Fractal Dimension, upper beta, Week 1", "result": 0.42},
      {"measurement": "d (Cohen's d, prediction of agomelatine outcome)", "setting": "[1]; Katz Fractal Dimension, upper beta, Week 2", "result": 0.40},
      {"measurement": "d (Cohen's d, prediction of agomelatine outcome)", "setting": "[1]; Katz Fractal Dimension, upper beta, Week 4", "result": 0.42},
      {"measurement": "d (Cohen's d, prediction of agomelatine outcome)", "setting": "[1]; Katz Fractal Dimension, upper gamma, Week 1", "result": 0.04},
      {"measurement": "d (Cohen's d, prediction of agomelatine outcome)", "setting": "[1]; Katz Fractal Dimension, upper gamma, Week 2", "result": 0.10},
      {"measurement": "d (Cohen's d, prediction of agomelatine outcome)", "setting": "[1]; Katz Fractal Dimension, upper gamma, Week 4", "result": 0.23},
      {"measurement": "d (Cohen's d, prediction of agomelatine outcome)", "setting": "[1]; Largest Lyapunov Exponent, upper alpha, Week 1", "result": 0.10},
      {"measurement": "d (Cohen's d, prediction of agomelatine outcome)", "setting": "[1]; Largest Lyapunov Exponent, upper alpha, Week 2", "result": 0.12},
      {"measurement": "d (Cohen's d, prediction of agomelatine outcome)", "setting": "[1]; Largest Lyapunov Exponent, upper alpha, Week 4", "result": 0.18},
      {"measurement": "d (Cohen's d, prediction of agomelatine outcome)", "setting": "[1]; Largest Lyapunov Exponent, upper gamma, Week 1", "result": "−0.02"},
      {"measurement": "d (Cohen's d, prediction of agomelatine outcome)", "setting": "[1]; Largest Lyapunov Exponent, upper gamma, Week 2", "result": 0.08},
      {"measurement": "d (Cohen's d, prediction of agomelatine outcome)", "setting": "[1]; Largest Lyapunov Exponent, upper gamma, Week 4", "result": 0.29},
      {"measurement": "d (Cohen's d, prediction of agomelatine outcome)", "setting": "[1]; Lempel-Ziv Complexity, lower gamma, Week 1", "result": "−0.06"},
      {"measurement": "d (Cohen's d, prediction of agomelatine outcome)", "setting": "[1]; Lempel-Ziv Complexity, lower gamma, Week 2", "result": 0.01},
      {"measurement": "d (Cohen's d, prediction of agomelatine outcome)", "setting": "[1]; Lempel-Ziv Complexity, lower gamma, Week 4", "result": 0.15},
      {"measurement": "d (Cohen's d, prediction of agomelatine outcome)", "setting": "[1]; Lempel-Ziv Complexity, upper alpha, Week 1", "result": 0.21},
      {"measurement": "d (Cohen's d, prediction of agomelatine outcome)", "setting": "[1]; Lempel-Ziv Complexity, upper alpha, Week 2", "result": 0.17},
      {"measurement": "d (Cohen's d, prediction of agomelatine outcome)", "setting": "[1]; Lempel-Ziv Complexity, upper alpha, Week 4", "result": 0.13},
      {"measurement": "d (Cohen's d, prediction of agomelatine outcome)", "setting": "[1]; Modified Multiscale Entropy, lower alpha, Week 1", "result": 0.08},
      {"measurement": "d (Cohen's d, prediction of agomelatine outcome)", "setting": "[1]; Modified Multiscale Entropy, lower alpha, Week 2", "result": 0.11}
    ]}
  ]
}
